Data as given in US12678511B2, “Peptide and use thereof” (Kansai Medical University Educational Corgoration, priority 2019, dated 2026).
Entries after “also recorded” stand apart in the source; their conditions may differ. Peptide text beside a SMILES is read from it.

Key:
[1] = test system: human mesenchymal stem cells (hMSC), line UE6E7T-3; test: Penetration of MSCPP-EGFPHIS fusion peptides into hMSC (fluorescence microscopy); assay type: cell-based; details: MSCPP-EGFPHIS fusion peptide, cultured four hours, FIG. 1
Text: Using an independently prepared 9-amino acid residue peptide as a phenotype linked via puromycin to a protein-RNA chimeric random peptide library (in vitro virus library; IVVL) having an mRNA coding sequence as the corresponding genotype, a conventional IVV (in vitro virus) method was used with human mesenchymal stem cells (hMSC) as the absorption target cells to repeat a reaction cycle in a culture system, thus isolating 81 types of peptide having penetration into mesenchymal stem cells (mesenchymal stem cell-penetrating peptide; MSCPP).
Next, fusion peptides (having a His tag formed from six histidine residues at the C-terminus of the fusion peptide) of each of the 81 isolated MSCPP and EGFP (excitation wavelength: 488 nm, fluorescence wavelength: 509 nm) (MSCPP-EGFPHIS) were produced. The penetration properties into hMSC were evaluated for each of the MSCPP-EGFPHIS. Cells of the hMSC line UE6E7T-3 were used as the hMSC. An RPMI 1640 medium containing 10% FBS was used as the medium. The UE6E7T-3 cells were inoculated into a 96-well plate, medium containing each MSCPP-EGFPHIS (5 μL of fusion peptide solution and 50 μL of medium per well) was added, and the mixtures were cultured for four hours. Following culturing, the cells were inspected under a fluorescence microscope. In FIG. 1, “EGFPHIS” represents EGFP having a His tag formed from six histidine residues at the C-terminus, but not being fused with an MSCPP peptide. Further, “Poly-r9” (9-residue continuous D-arginine) is a non-selective membrane-permeable peptide that is currently widely used.

hMSC [2] = test: Cell selectivity of FITC-labelled peptides: penetration into hMSC; assay type: cell-based, human; details: FITC-labelled peptide 4 μM, four hours, FIG. 2
Protocol: (§1) Among the peptides identified in Example 1, the four peptides MSCPP33, 48, 49 and 106, Poly-r9 as a positive control and MSCPP22 as a negative control were synthesized with an FITC (fluorescein isothiocyanate) (excitation wavelength: 495 nm, fluorescence wavelength: 520 nm) label, and then subjected to a hydrochloride treatment. These peptides were each obtained via contract synthesis by Sigma-Aldrich Japan (Genosis division). The MSCPP33 was dissolved in 20% DMSO. The MSCPP48 developed a precipitate following thawing of the frozen state, and was therefore subjected to a sonication treatment prior to use. The MSCPP49 and MSCPP106 were dissolved in water prior to use.
Subsequently, the penetration of each peptide into hMSC, normal human dermal fibroblasts (NHDF), and BxPC3 cells, which are an established cell line derived from human pancreatic adenocarcinoma, was confirmed. In the case of the hMSC, cells that had been inoculated into a 24-well plate at 4×10^4 cells/well and then cultured for 24 hours in an MSC medium were used. In the case of the NHDF and BxPC3 cells, cells that had been inoculated into a 24-well plate at 4×10^4 cells/well and then cultured for 24 hours in an RPMI 1640 medium containing 10% FBS were used. Mediums (RPMI 1640 medium containing 10% FBS) containing 4 μM of each of the peptides were then added to each of the cells and cultured for four hours. Following culturing, each of the cells was subjected to nuclear staining with Hoechst 33342 (excitation wavelength: 352 nm, fluorescence wavelength: 461 nm), and was then observed using a phase difference/fluorescence microscope. In FIG. 2, the images shown on the left side are FITC fluorescence images, and the images shown on the right side are merged images of the fluorescence image and the phase difference microscope image.

[3] = test system: normal human dermal fibroblasts (NHDF); test: Cell selectivity of FITC-labelled peptides: penetration into NHDF; assay type: cell-based; details: FITC-labelled peptide 4 μM, four hours, FIG. 2
Protocol: as §1
(§2) Subsequently, the penetration of each peptide into hMSC, normal human dermal fibroblasts (NHDF), and BxPC3 cells, which are an established cell line derived from human pancreatic adenocarcinoma, was confirmed. […] Following culturing, each of the cells was subjected to nuclear staining with Hoechst 33342 (excitation wavelength: 352 nm, fluorescence wavelength: 461 nm), and was then observed using a phase difference/fluorescence microscope. In FIG. 2, the images shown on the left side are FITC fluorescence images, and the images shown on the right side are merged images of the fluorescence image and the phase difference microscope image.

BxPC3 cells = test: Cell selectivity of FITC-labelled peptides: penetration into BxPC3 cells; assay type: cell-based, human; details: FITC-labelled peptide 4 μM, four hours, FIG. 2
Protocol: as §1, §2

[4] = Degradation resistance in human plasma (MALDI-TOFMS); assay type: in vitro ADME; details: human plasma 50% by mass, 0 to 120 minutes, FIG. 4
Text: For the single peptide, tandem peptide, and tandem mutated peptide of MSCPP106 shown below in Table 2, the degradation resistance in human plasma was investigated. In Table 2, “tandem MSCPP106” describes a peptide composed of sequence containing two repeated amino acid sequences for MSCPP106 linked via a glycine residue spacer. Further, “tandem mut MSCPP106” describes a peptide composed of a sequence in which the cysteine residues in the amino acid sequence of tandem MSCPP106 have been methylated (mC).
Each of the above peptides was added to human plasma with a concentration of 50% by mass, the mixture was then sampled immediately after starting the degradation test (0 minutes), and then after 5 minutes, after 10 minutes, after 20 minutes, after 30 minutes, after 60 minutes and after 120 minutes, and each sample was analyzed by MALDI-TOFMS (Matrix Assisted Laser Desorption/Ionization-Time of Flight Mass Spectrometry). The ratio of the mass of the retained peptide that had not degraded at each of the sampling points from the start of the test, relative to the mass of the peptide (100% by mass) at the start of the test was calculated and graphed (see FIG. 4).

[5] = test system: CAF of the cancer stroma, subcutaneous tumor; test: Absorption into CAF of cancer stroma in scirrhous cancer model mouse; assay type: in vivo; details: [FAM]-labelled, 300 μg intravenous, 30 minutes after injection, FIG. 8C
Protocol: Using the same method as Example 7, a scirrhous cancer model mouse was obtained. Subsequently, the obtained scirrhous cancer model mouse was injected intravenously with [FAM]-tandem MSCPP106 (300 μg). Subsequently, the pharmacokinetics of the peptide 30 minutes after the intravenous injection were analyzed by tissue analysis of the freshly dissected specimen of the peptide-administered mouse.
FIG. 8C is a series of phase difference microscope images and fluorescent images of the subcutaneous tumor. The upper two rows are images at a magnification of 20×, whereas the lower two rows are images at a magnification of 40×. Further, “Merge” represents merged images of each phase difference microscope image and each fluorescent image.

hMSC [6] = test: Intracellular localization of [FAM]-tandem MSCPP106 in hMSC; assay type: cell-based, human; details: [FAM]-labelled, 4 μM, fluorescence maintained in lysosomes, FIG. 6
Protocol: Next, the intracellular localization of [FAM]-tandem MSCPP106 was investigated. Specifically, hMSC were inoculated into a 24-well plate to achieve 4×10^4 cells/well, and four hours after the inoculation, the medium was replaced with an RPMI medium containing 10% FBS, and culturing was conducted for 60 hours. Following culturing, a medium (RPMI 1640 medium containing 10% FBS) containing 4 μM of [FAM]-tandem MSCPP106 was added to the hMSC and cultured for 24 hours. Following culturing, nuclear staining was conducted with Hoechst 33342 (excitation wavelength: 352 nm, fluorescence wavelength: 461 nm), lysosomes were also stained using LysoTracker (a registered trademark) RED DND-99 (a lysosome content marker, excitation wavelength: 555 nm, fluorescence wavelength: 584 nm), and the cultures were then observed using a phase difference/fluorescence microscope (magnification: 60×). In FIG. 6, “Merge” indicates a merged image of the FAM fluorescence image and the LysoTracker (a registered trademark) RED DND-99 fluorescence image.

[7] = test system: cancer stroma, subcutaneous tumor (BxPC3 cells and DsRed2 hMSC); test: Absorption of [FAM]-tandem and [FAM]-tandem mut MSCPP106 into cancer stroma in scirrhous pancreatic cancer model mice; assay type: in vivo, mouse; details: [FAM]-labelled, 300 μg intravenous, 60 minutes after injection
Text: Next, in order to investigate the functional importance of the cysteine within the peptide sequence (positioned second from the N-terminus), a comparison was made of the absorption into cancer stroma of [FAM]-tandem MSCPP106 and [FAM]-tandem mut MSCPP106 (having a sequence in which the N-terminus is labeled with FAM, and having a mutation in which the side-chain —SH group of the cysteine second from the N-terminus has been methylated). With the exception of using cloned hMSC cells that constantly expressed DsRed2, the same method as Example 7 was used to obtain scirrhous pancreatic cancer model mice. Subsequently, the obtained scirrhous pancreatic cancer model mice were injected intravenously with [FAM]-tandem MSCPP106 or [FAM]-tandem mut MSCPP106 (300 μg in each case). In each case, the pharmacokinetics of the peptide 60 minutes after the intravenous injection were then analyzed by tissue analysis of the freshly dissected specimen of the peptide-administered mouse.
FIG. 9B is a series of fluorescent images of subcutaneous tumors in mice administered with [FAM]-tandem MSCPP106 or [FAM]-tandem mut MSCPP106 (magnification: 4×).
FIG. 9C is a series of fluorescent images of a subcutaneous transplanted tumor in a mouse administered with tandem MSCPP106 (magnification: 4×, 20× and 40×). […]

Molecule	penetration into human bone marrow-derived mesenchymal stem cells (hMSC) [1]	absorption into hMSC (hMSC [2])	degradation resistance in human plasma [4]	also measured
RTHPVWSRT [MSCPP48]	exhibited penetration	high absorption and fixed selective absorption	–	–
KCAELFRHL [MSCPP106]	exhibited penetration	high absorption and fixed selective absorption; also recorded: efficient absorption	–	absorption into NHDF [3]: lower absorption into NHDF compared with the absorption into hMSC; absorption into the pancreatic cancer cells BxPC3 (BxPC3 cells): low absorption; fluorescence observed in hMSC [1]: Particularly strong fluorescence
CSC[C@H](NC(=O)[C@H](CCCCN)NC(=O)CNC(=O)[C@H](CC(C)C)NC(=O)[C@H](Cc1c[nH]cn1)NC(=O)[C@H](CCCNC(=N)N)NC(=O)[C@H](Cc1ccccc1)NC(=O)[C@H](CC(C)C)NC(=O)[C@H](CCC(=O)O)NC(=O)[C@H](C)NC(=O)[C@H](CSC)NC(=O)[C@@H](N)CCCCN)C(=O)N[C@@H](C)C(=O)N[C@@H](CCC(=O)O)C(=O)N[C@@H](CC(C)C)C(=O)N[C@@H](Cc1ccccc1)C(=O)N[C@@H](CCCNC(=N)N)C(=O)N[C@@H](Cc1c[nH]cn1)C(=O)N[C@@H](CC(C)C)C(=O)O [tandem mut MSCPP106, KmCAELFRHL-G-KmCAELFRHL] (H-KC(Me)AELFRHLGKC(Me)AELFRHL-OH; N-terminus and C-terminus assumed)	–	–	excellent degradation resistance compared with the single MSCPP106	–
CC(C)C[C@H](NC(=O)[C@H](Cc1c[nH]cn1)NC(=O)[C@H](CCCNC(=N)N)NC(=O)[C@H](Cc1ccccc1)NC(=O)[C@H](CC(C)C)NC(=O)[C@H](CCC(=O)O)NC(=O)[C@H](C)NC(=O)[C@H](CS)NC(=O)[C@H](CCCCN)NC(=O)CNC(=O)[C@H](CC(C)C)NC(=O)[C@H](Cc1c[nH]cn1)NC(=O)[C@H](CCCNC(=N)N)NC(=O)[C@H](Cc1ccccc1)NC(=O)[C@H](CC(C)C)NC(=O)[C@H](CCC(=O)O)NC(=O)[C@H](C)NC(=O)[C@H](CS)NC(=O)[C@@H](N)CCCCN)C(=O)O [tandem MSCPP106, KCAELFRHL-G-KCAELFRHL] (H-KCAELFRHLGKCAELFRHL-OH; N-terminus and C-terminus assumed)	–	–	excellent degradation resistance compared with the single MSCPP106	absorption into the CAF of the cancer stroma [5]: selective absorption; resistance to intracellular digestion (degradation) (hMSC [6]): at least 24 hours; absorption into cancer stroma, comparison of peptides ([7]; FIG. 9B): even better absorption into cancer stroma than tandem mut MSCPP106; absorption into hMSC-derived hCAF and mouse MSC-derived CAF ([7]; FIG. 9C): excellent absorption into both forms of CAF
WPPLQRWRN [MSCPP33]	exhibited penetration	high absorption and fixed selective absorption	–	–
RRWMQWPWH [MSCPP49]	exhibited penetration	high absorption and fixed selective absorption	–	–
